Source: PubChem BioAssay (NCI)
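Protocol summary: plate cells (96-well), add compound at 5 concentrations, incubate 48 h, interpolate endpoints linearly. Here, GI50 denotes the concentration required for 50% inhibition of growth. TGI is the concentration that stops growth completely.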

Assays:
Experiment in all cases: NCI-60 cell line screen, 48 h
[1] = test system: NCI-H522 lung
[2] = test system: A498 renal
[3] = test system: HCC-2998 colon
[4] = test system: SF-268 CNS
[5] = test system: RPMI-8226 leukemia
[6] = test system: K-562 leukemia
[7] = test system: HCT-116 colon
[8] = test system: SR leukemia
[9] = test system: RXF 393 renal
[10] = test system: MDA-MB-231 breast

| Compound | TGI [1] | TGI [2] | TGI [3] | TGI [4] | TGI [5] | TGI [6] | TGI [7] | TGI [8] | TGI [9] | TGI [10] | GI50 [10] | GI50 [9] | GI50 [1] | GI50 [2] | GI50 [3] | GI50 [5] | GI50 [7] | GI50 [8] | GI50 [4] | GI50 [6] |
| --- | --- | --- | --- | --- | --- | --- | --- | --- | --- | --- | --- | --- | --- | --- | --- | --- | --- | --- | --- | --- |
| COc1ccc(C)cc1-c1ccc(-c2cc(C)ccc2OC)o1 | > 100 µM | > 100 µM | > 100 µM | > 100 µM | > 100 µM | > 100 µM | > 100 µM |  |  |  |  |  |  |  |  |  |  |  |  |  |
| CC1(C)CCOC(Sc2ccccc2)C1 (configuration not stated) | > 100 µM | > 100 µM | > 100 µM | > 100 µM | 91.3 µM | > 100 µM | > 100 µM | > 100 µM | > 100 µM |  |  |  |  |  |  |  |  |  |  |  |
| CN(C)Cc1nsc(N(C)C)n1 | > 100 µM | > 100 µM |  | > 100 µM | > 100 µM | > 100 µM | > 100 µM |  | > 100 µM | > 100 µM |  |  |  |  |  |  |  |  |  |  |
| O=S(=O)(c1ccccc1)C1(C2(S(=O)(=O)c3ccccc3)CCN=N2)CCN=N1 (configuration not stated) | > 100 µM |  | > 100 µM | > 100 µM | > 100 µM | > 100 µM | > 100 µM | > 100 µM | > 100 µM |  |  |  |  |  |  |  |  |  |  |  |
| Cc1nc2ccccc2c(/C=C/c2ccc(C(F)(F)F)cc2)c1C(=O)/C=C/c1ccccc1 | 3.07 µM | 3.13 µM | 3.29 µM |  | 4.64 µM |  | 2.03 µM |  | 2.81 µM | 3.65 µM | 1.74 µM | 1.46 µM | 1.33 µM | 1.69 µM | 1.57 µM | 0.999 µM | 0.521 µM |  |  |  |
| O=S(=O)([O-])c1ccc(C=Nc2ccccc2)c([O-])c1.O=S(=O)([O-])c1ccc(C=Nc2ccccc2)c([O-])c1.[Co+2] | > 100 µM |  | > 100 µM | > 100 µM | > 100 µM | > 100 µM |  | > 100 µM | > 100 µM |  |  | > 100 µM | > 100 µM |  | > 100 µM | > 100 µM |  | 24.9 µM | 5.18 µM | 2.07 µM |
| O=C(O)CC(CC(=O)O)n1cccc1 | > 100 µM | > 100 µM |  |  | > 100 µM | > 100 µM | > 100 µM | > 100 µM | > 100 µM | > 100 µM |  |  |  |  |  |  |  |  |  |  |
| CCOC(=O)N1C/C(=C\c2ccc(N(C)C)cc2)C(=O)/C(=C/c2ccc(N(C)C)cc2)C1 | > 100 µM | > 100 µM | > 100 µM | > 100 µM | > 100 µM | > 100 µM | > 100 µM | > 100 µM | > 100 µM |  |  |  |  |  |  |  |  |  |  |  |
| O=[N+]([O-])C(=C1c2ccccc2-c2ccccc21)[N+](=O)[O-] | > 100 µM | > 100 µM | > 100 µM | 84.8 µM | > 100 µM | > 100 µM | > 100 µM | > 100 µM | > 100 µM |  |  |  |  |  |  |  |  |  |  |  |
| Nc1ncnc2c1ncn2C1(CO)OC(CO)C(O)C1O (configuration not stated) | > 100 µM | > 100 µM | > 100 µM | > 100 µM | > 100 µM |  | > 100 µM | > 100 µM | > 100 µM |  |  |  |  |  |  |  |  |  |  |  |
| CCOC(=O)c1c(C)n(Cc2ccc(Cl)cc2Cl)c2c1cc(O)c1[nH]c(Cc3ccccc3)nc12 | 15.6 µM |  | 5.23 µM | 6.21 µM | 3.9 µM | 10.7 µM | 4.76 µM | 2.22 µM | 5.23 µM | 12.5 µM | 3.61 µM | 2.4 µM | 3.2 µM |  | 2.41 µM | 1.92 µM | 2.18 µM | 0.612 µM | 2.59 µM | 2.94 µM |
